For 32 molecules, IC50 results are on record in US9694016B2 (Novartis AG, priority 2013, dated 2017).

The target of one assay is b-Raf (V600E) (Homo sapiens (Human), UniProt P15056, V600E). Conditions: read-out: b-Raf IC-50; AlphaScreen, 60 min pre-incubation, 3 hours reaction.
Sequence of b-Raf (V600E) (P15056 whole entry V600E): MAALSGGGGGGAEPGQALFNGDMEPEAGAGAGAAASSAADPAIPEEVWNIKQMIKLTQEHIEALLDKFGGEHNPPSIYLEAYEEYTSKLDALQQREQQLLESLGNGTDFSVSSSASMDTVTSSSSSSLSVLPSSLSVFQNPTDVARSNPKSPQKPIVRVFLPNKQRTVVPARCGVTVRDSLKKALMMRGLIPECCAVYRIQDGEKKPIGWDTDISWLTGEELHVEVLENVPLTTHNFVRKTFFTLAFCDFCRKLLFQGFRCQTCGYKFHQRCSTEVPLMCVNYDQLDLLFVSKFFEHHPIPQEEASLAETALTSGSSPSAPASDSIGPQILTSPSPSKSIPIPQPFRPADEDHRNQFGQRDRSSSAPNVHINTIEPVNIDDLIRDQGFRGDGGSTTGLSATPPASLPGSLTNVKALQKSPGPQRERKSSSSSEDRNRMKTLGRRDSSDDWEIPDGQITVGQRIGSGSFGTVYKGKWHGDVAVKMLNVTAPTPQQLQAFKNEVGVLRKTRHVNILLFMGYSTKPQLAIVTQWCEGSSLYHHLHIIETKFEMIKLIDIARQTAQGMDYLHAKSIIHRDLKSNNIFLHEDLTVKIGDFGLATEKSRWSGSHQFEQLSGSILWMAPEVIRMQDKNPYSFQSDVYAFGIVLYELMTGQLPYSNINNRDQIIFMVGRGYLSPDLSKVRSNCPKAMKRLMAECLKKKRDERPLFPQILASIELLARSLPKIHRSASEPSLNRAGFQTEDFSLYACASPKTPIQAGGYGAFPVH
Description: Sf9 cells co-expressing both proteins were lysed and subjected to immobilized nickel chromatography and eluted with Imidazole. A second column (StrepII binding column) was used and eluted with desthiobiotin. Protein Tags were removed using Prescission enzyme and the protein was further purified using a flowthrough step to remove tags.
Full length MEK1 with an inactivating K97R ATP binding site mutation is utilized as a RAF substrate. The MEK1 cDNA was subcloned with an N-terminal (his)6 tag into a vector for E. Coli expression. The MEK1 substrate was purified from E. Coli lysate by nickel affinity chromatography followed by anion exchange. The final MEK1 preparation was biotinylated (Pierce EZ-Link Sulfo-NHS-LC-Biotin) and concentrated.
Assay buffer: 50 mM Tris, pH 7.5, 15 mM MgCl2, 0.01% Bovine Serum Albumin (BSA), 1 mM dithiothreitol (DTT) Stop buffer: 60 mM ethylenediaminetetraacetic acid (EDTA), 0.01% Tween® 20
biotinylated Mek, kinase dead
384 well low volume assay plates (White Greiner® plates)
biotinylated Mek, Kinase dead approximately 10 nM
Pre-incubation time with compounds 60 minutes at room temperature
Reaction time 1 or 3 hours at room temperature
The plate was incubated for 60 minutes at room temperature.
The additions were carried out under dark conditions to protect the detection beads from light. A lid was placed on top of the plate and incubated for 1 hour at room temperature, then the luminescence was read on a PerkinElmer Envision instrument.
As for `COc1nnc(-c2cc(NC(=O)c3ccnc(C(F)(F)F)c3)ccc2C)cc1N1CCOCC1` [Example 547, N-(3-(6-methoxy-5-morpholinopyridazin-3-yl)-4-methylphenyl)-2-(trifluoromethyl)isonicotinamide], the IC50 was determined as 1 nM. Same read-out and setting: to `Cc1ncc(NC(=O)c2cccc(C(F)(F)F)c2)cc1-c1cc(N2CCOCC2)nc(NC[C@H](C)O)n1` [Example 740, (S)—N-(5-(2-((2-hydroxypropyl)amino)-6-morpholinopyrimidin-4-yl)-6-methylpyridin-3-yl)-3-(trifluoromethyl)benzamide] belongs 2.1 nM; to `Cc1ncc(NC(=O)c2cccc(C(F)(F)F)c2)cc1-c1cc(N2CCOCC2)nc(NCCO)n1` [Example 735, N-(5-(2-((2-hydroxyethyl)amino)-6-morpholinopyrimidin-4-yl)-6-methylpyridin-3-yl)-3-(trifluoromethyl)benzamide], 4.3 nM. Same read-out and setting: to `Cc1ncc(NC(=O)c2ccnc(C(C)(C)C#N)c2)cc1-c1cc(N2CCOCC2)nc(N2CC(O)C2)n1` [Example 767, 2-(2-cyanopropan-2-yl)-N-(5-(2-(3-hydroxyazetidin-1-yl)-6-morpholinopyrimidin-4-yl)-6-methylpyridin-3-yl)isonicotinamide] belongs 47.4 nM; to `Cc1ccc(NC(=O)c2ccnc(S(C)(=O)=O)c2)cc1-c1cc(N2CCOCC2)n2nccc2n1` [Example 806], 1.1 nM; to `Cc1ncc(NC(=O)c2cnnc(C(F)(F)F)c2)cc1-c1cc(N2CCOCC2)c(OC2CCOCC2)nn1` [Example 631, N-(6-methyl-5-(5-morpholino-6-((tetrahydro-2H-pyran-4-yl)oxy)pyridazin-3-yl)pyridin-3-yl)-6-(trifluoromethyl)pyridazine-4-carboxamide], 2.7 nM. On the same count and under the same terms, the value for `Cc1ccc(NC(=O)c2cnnc(C(C)(C)C#N)c2)cc1-c1cc(N2CCOCC2)nc(NCCO)n1` [Example 737, 6-(2-cyanopropan-2-yl)-N-(3-(2-((2-hydroxyethyl)amino)-6-morpholinopyrimidin-4-yl)-4-methylphenyl)pyridazine-4-carboxamide] was 17.9 nM. As to `Cc1ncc(NC(=O)c2ccnc(C(F)F)c2)cc1-c1cc(N2CCOCC2)n2nccc2n1` [Example 803, 2-(difluoromethyl)-N-(6-methyl-5-(7-morpholinopyrazolo[1,5-a]pyrimidin-5-yl)pyridin-3-yl)isonicotinamide], the IC50 stood at 1.9 nM.

On to `Cc1ccc(NC(=O)c2cccc(C3COC3)c2)cc1-c1cc(N2CCOCC2)n(C)c(=O)c1` [Example 492, N-(4-methyl-3-(1-methyl-6-morpholino-2-oxo-1,2-dihydropyridin-4-yl)phenyl)-3-(oxetan-3-yl)benzamide], for which the IC50 was found to be 3 nM.

On to `Cc1ccc(C(=O)Nc2cccc(-c3nnco3)c2)cc1-c1cc(N2CCOCC2)c(=O)n(C)c1` [Example 437, N-(3-(1,3,4-oxadiazol-2-yl)phenyl)-4-methyl-3-(1-methyl-5-morpholino-6-oxo-1,6-dihydropyridin-3-yl)benzamide], for which the IC50 came out at 15.4 nM. The same measure, in the same setting: the value for `CCNc1nc(-c2cc(NC(=O)c3ccnc(C(C)(C)O)c3)ccc2C)cc(N2CCOC[C@H]2C)n1` [Example 712, (R)—N-(3-(2-(ethylamino)-6-(3-methylmorpholino)pyrimidin-4-yl)-4-methylphenyl)-2-(2-hydroxypropan-2-yl)isonicotinamide] was 12.1 nM. Same read-out and setting: to `CCc1cc(C(=O)Nc2ccc(C)c(-c3cc(N4CCOCC4)n(C)c(=O)c3)c2)ccn1` [Example 476, 2-ethyl-N-(4-methyl-3-(1-methyl-6-morpholino-2-oxo-1,2-dihydropyridin-4-yl)phenyl)isonicotinamide] belongs 0.6 nM; to `Cc1ncc(NC(=O)c2ccnc(C(F)F)c2)cc1-c1cc(N2CCOCC2)n(C)c(=O)c1` [Example 508, 2-(difluoromethyl)-N-(1′,2-dimethyl-6′-morpholino-2′-oxo-1′,2′-dihydro-[3,4′-bipyridin]-5-yl)isonicotinamide], 7.8 nM; to `Cc1ccc(NC(=O)c2ccnc(C(C)C)c2)cc1-c1cc(N2CCOCC2)c2nccn2n1` [Example 842, 2-isopropyl-N-(4-methyl-3-(8-morpholinoimidazo[1,2-b]pyridazin-6-yl)phenyl)isonicotinamide], 1.3 nM. Still for that read-out and setting: to `Cc1ccc(NC(=O)c2ccnc(C(C)(F)F)c2)cc1-c1cc(N2C3CCC2COC3)cc(=O)n1C` [Example 691, N-(3-(4-(3-oxa-8-azabicyclo[3.2.1]octan-8-yl)-1-methyl-6-oxo-1,6-dihydropyridin-2-yl)-4-methylphenyl)-2-(1,1-difluoroethyl)isonicotinamide] belongs 23.8 nM. For the molecule `COCCOc1nnc(-c2cc(NC(=O)c3cc(C(F)(F)F)ccn3)ccc2C)cc1N1CCOCC1` [Example 599, N-(3-(6-(2-methoxyethoxy)-5-morpholinopyridazin-3-yl)-4-methylphenyl)-4-(trifluoromethyl)picolinamide], the IC50 amounted to 0.5 nM.

Still in this assay, the particulars now being: read-out: b-Raf IC-50; AlphaScreen, 60 min pre-incubation, reaction 3 hours at room temperature.
As to `Cc1ccc(NC(=O)c2ccnc(C(C)(C)F)c2)cc1-c1cc(C2COCCO2)nc(N2CCOCC2)c1` (centres unmarked) [Example 1144, N-(3-(2-(1,4-dioxan-2-yl)-6-morpholinopyridin-4-yl)-4-methylphenyl)-2-(2-fluoropropan-2-yl)isonicotinamide], the IC50 worked out at 1.56 nM.

In the case of `Cc1ncc(NC(=O)c2cc(C(C)(C)C#N)ccn2)cc1-c1cnc(OC2CC3(COC3)C2)c(N2CCOCC2)c1` [Example 970, N-(6′-(2-oxaspiro[3.3]heptan-6-yloxy)-2-methyl-5′-morpholino-[3,3′-bipyridin]-5-yl)-4-(2-cyanopropan-2-yl)picolinamide], the IC50 is 8.79 nM. The same measure, in the same setting: the value for `Cc1ncc(NC(=O)c2cccc(S(C)(=O)=O)c2)cc1-c1cnc(OC2CCOCC2)c(N2CCOCC2)c1` [Example 937, N-(2-methyl-5′-morpholino-6′-((tetrahydro-2H-pyran-4-yl)oxy)-[3,3′-bipyridin]-5-yl)-3-(methylsulfonyl)benzamide] was 4.53 nM; that for `Cc1ccc(NC(=O)c2cnnc(C(F)(F)F)c2)cc1-c1cc(N2CCOCC2)nc(NCCO)c1F` [Example 1007, N-(3-(3-fluoro-2-((2-hydroxyethyl)amino)-6-morpholinopyridin-4-yl)-4-methylphenyl)-6-(trifluoromethyl)pyridazine-4-carboxamide] was 5.38 nM; that for `CCn1cc(C(=O)Nc2ccc(C)c(-c3cc(N4CCOCC4)nc(N4CCOCC4)c3)c2)cc(C(F)(F)F)c1=O` [Example 1114, N-(3-(2,6-dimorpholinopyridin-4-yl)-4-methylphenyl)-1-ethyl-6-oxo-5-(trifluoromethyl)-1,6-dihydropyridine-3-carboxamide] was 3.14 nM. On to `Cc1ccc(NC(=O)c2ccnc(C(C)(C)F)c2)cc1-c1cc(N2CCOCC2)c(S(C)(=O)=O)nn1` [Example 928, 2-(2-fluoropropan-2-yl)-N-(4-methyl-3-(6-(methylsulfonyl)-5-morpholinopyridazin-3-yl)phenyl)isonicotinamide], for which the IC50 was 1.9 nM. On the same count and under the same terms, to `CCN1CCN(c2cc(C(=O)Nc3cnc(C)c(-c4cc(NCCO)nc(N5CCOCC5)c4)c3)cc(C(F)(F)F)c2)CC1` [Example 1045, 3-(4-ethylpiperazin-1-yl)-N-(2′-((2-hydroxyethyl)amino)-2-methyl-6′-morpholino-[3,4′-bipyridin]-5-yl)-5-(trifluoromethyl)benzamide] belongs 32.9 nM; to `Cc1ncc(NC(=O)c2ccnc(C(C)(C)O)c2)cc1-c1cnc(OC(C)C)c(N2CCOCC2)c1` [Example 955, 2-(2-hydroxypropan-2-yl)-N-(6′-isopropoxy-2-methyl-5′-morpholino-[3,3′-bipyridin]-5-yl)isonicotinamide], 18.1 nM.

The same assay, now with this note: read-out: b-Raf IC-50; Table 2; AlphaScreen, 3 hours reaction.
`Cc1ccc(NC(=O)c2cc(C(F)(F)F)nn2C)cc1-c1cc(N2CCOCC2)c(=O)n(C)c1` [Example 369, 1-methyl-N-(4-methyl-3-(1-methyl-5-morpholino-6-oxo-1,6-dihydropyridin-3-yl)phenyl)-3-(trifluoromethyl)-1H-pyrazole-5-carboxamide]: the IC50 was found to be 53.1 nM. Still for that read-out and setting: to `CCOc1ncc(-c2cc(NC(=O)c3ccnc(S(C)(=O)=O)c3)ccc2C)cc1N1CCOCC1` [Example 232, N-(3-(6-ethoxy-5-morpholinopyridin-3-yl)-4-methylphenyl)-2-(methylsulfonyl)isonicotinamide] belongs 0.8 nM; to `Cc1ccc(NC(=O)c2cccc(OC(F)(F)F)c2)cc1-c1cc(N2CCOCC2)c(=O)n(C)c1` [Example 340, N-(4-methyl-3-(1-methyl-5-morpholino-6-oxo-1,6-dihydropyridin-3-yl)phenyl)-3-(trifluoromethoxy)benzamide], 36.4 nM; to `Cc1ncc(NC(=O)c2ccnc(C(C)(F)F)c2)cc1-c1cc(N2CCOCC2)c(=O)n(C)c1` [Example 391, 2-(1,1-difluoroethyl)-N-(1′,2-dimethyl-5′-morpholino-6′-oxo-1′,6′-dihydro-[3,3′-bipyridin]-5-yl)isonicotinamide], 12.3 nM. With `Cc1ccc(NC(=O)c2cccc(-c3nnco3)c2)cc1-c1cc(N2CCOCC2)c(=O)n(C)c1` [Example 349, N-(4-methyl-3-(1-methyl-5-morpholino-6-oxo-1,6-dihydropyridin-3-yl)phenyl)-3-(1,3,4-oxadiazol-2-yl)benzamide], the IC50 is 6.2 nM. Turning to `Cc1ncc(NC(=O)c2cccc(C(F)(F)F)c2)cc1-c1cnc(N(C)C)c(N2CCOCC2)c1` [Example 307, N-(6′-(dimethylamino)-2-methyl-5′-morpholino-[3,3′-bipyridin]-5-yl)-3-(trifluoromethyl)benzamide], the IC50 came to 0.6 nM. In the case of `Cc1ncc(NC(=O)c2cccc(C(F)(F)F)c2)cc1-c1cnc(OC(F)F)c(N2CCOCC2)c1` [Example 224, N-(6′-(difluoromethoxy)-2-methyl-5′-morpholino-[3,3′-bipyridin]-5-yl)-3-(trifluoromethyl)benzamide], the IC50 amounted to 2.7 nM. The same measure, in the same setting: the value for `Cc1ncc(NC(=O)c2ccnc(C(C)(F)F)c2)cc1-c1cnc(N(C)C)c(N2CCOCC2)c1` [Example 267] was 1.1 nM.
